Results as given in patent US5756463A, “Use of insulin and IGF-1” (Pharmacia & Upjohn AB, priority 1994, dated 1998).
“Also recorded” adds a separate entry of the source.

Experiments:
Male Sprague-Dawley rats [1] = test: Example 1: body weight gain and nitrogen retention in dexamethasone-infused rats, 8-day subcutaneous mini-pump infusion; type: in vivo, rat; settings: 8 days
Experimental: On day zero the rats were anaesthetized intraperitoneally with 0.4 ml per 100 g body weight of a mixture of Rompun (20 mg.ml^-1), Ketalar (50 mg.ml^-1) and Saline (0.9%) in 1:2:3 volume proportions. The hair on the back of the rats was shaved off and the exposed skin carefully washed with 0.05% chlorhexidine (Pharmacia, Stockholm, Sweden) and 0.4 % jodopax (Molnlycke, Goteborg, Sweden), both being diluted in 70% alcohol. Two mutually parallel incisions, each of 15 mm in length, were then made along the dorsal midline. The incisions penetrated the epidermis, dermis and subcutaneous muscle but left the deep fascia intact. Two subcutaneous pockets were made on both sides of the incisions by separating the subcutaneous muscle from the deep fascia. One (Exp. I) or two (Exp. 2) mini-pumps were implanted in each pocket. The wounds were closed with sutures 4-0 (Johnson & Johnson). Osmotic mini-pumps (Alzet 2001, Alza Corporation, Palo Alto, USA) releasing 1 μl.h^-1 for 8 days were used for continuous delivery of hormones and Dex to the animals. The pumps were filled to a volume of 0.22 ml with solutions of rhGH (14.4 mg.ml^-1, Genotropin®, Pharmacia), […] (20 mg.ml^-1, Igef®, Pharmacia, Kabi Peptide Hormones, Stockholm, Sweden), insulin (1.57 mg/ml, Actrapid®, Novo, Copenhagen, Denmark), Dex (1.04 mg.ml^-1, Decadron, Merck Sharp & Dohme International, […], USA) or Saline (0.9%). Two (Example 1) or four (Example 2) pumps combined as described above were implanted in each rat. Implantation of the pumps was performed under strictly aseptic conditions. Total feed intake was registered throughout the full 8 day experimental period. Urine and faeces were collected daily, pooled and kept at -20° C. until analysed. Excreta was collected by housing the animals in individual metabolism cages that were specially designed for the separation of urine and faeces. In order to inhibit urease-activity in the urine, 1 ml of 5% sulphuric acid was pipetted every morning in the collection vessels. The 24 hour collections of urine were pooled individually for each treatment period and immediately frozen after the collection. Similarly, the samples of faeces were also pooled individually for each treatment period and kept frozen (-20° C.) until analysis. Urea in serum was determined spectrophotometrically by using the Urea UV Uni-Kit I (Roche) with an autoanalyzer (Cobas Mira, Roche Co, Basel, Switzerland). Urea values were expressed in mmol/l. The total nitrogen content in urine was determined with the aid of the Antek Pyro-Chemiluminiscence Nitrogen System. The apparatus used comprised the […] nitrogen analyser with Liquid Auto Sampler 736-2 and a pyrolysis tube with a ceramic […] Instruments Inc., Houston, Tex., U.S.A.). The frozen urinary samples were thawed and diluted 1:100 with 0.1 M HCl and then analysed. The urinary nitrogen values were then calculated as mg nitrogen excreted. Total nitrogen in faeces was determined by an established Kjeldahl method (Kjeltec System, Tecator AB, Halsingborg, Sweden). The frozen faecal samples were thawed and dried in an oven at 60° C. overnight. The weight of the dried sample was noted and the sample then ground. 0.20 g of the milled faecal sample was mixed in a Kjeldahl digestion tube with 10.0 ml of concentrated sulphuric acid. 2.0 ml of a 30% solution of H202 (30% Perhydrol, Merck, Darmstadt, Germany) was added and mixed carefully. One catalyst tablet (Kjeltabs CA, Thompson & Capper, Runcom, Cheshire, UK) was added to each sample. The mixture was digested at […] for at least one hour or until complete bleaching of the sample was achieved. […] The faecal nitrogen values were calculated as mg nitrogen excreted. Data were subjected to a one-way analysis of variance in which the effect of treatment was considered the prime source of variation. Calculations were executed by the GLM procedure of the SAS program (SAS 1985). […]

Male Sprague-Dawley rats [2] = test: Example 2: feed intake, nitrogen digestibility and nitrogen retention in dexamethasone-infused rats, 8-day mini-pump infusion of peptide combinations; type: in vivo, rat; settings: 8 days; for relative nitrogen retention (retained N/digested N×100): Dex 26 μg/day with saline or with insulin 39, rhGH 360, rhIGF-I 500 μg/day, mean, pooled SE, saline alone 38.7%; for nitrogen retention, effect compared with Dex without peptide: Dex 26 μg/day plus peptide
Experimental: On day zero the rats were anaesthetized intraperitoneally with 0.4 ml per 100 g body weight of a mixture of Rompun (20 mg.ml^-1), Ketalar (50 mg.ml^-1) and Saline (0.9%) in 1:2:3 volume proportions. The hair on the back of the rats was shaved off and the exposed skin carefully washed with 0.05% chlorhexidine (Pharmacia, Stockholm, Sweden) and 0.4 % jodopax (Molnlycke, Goteborg, Sweden), both being diluted in 70% alcohol.
Two mutually parallel incisions, each of 15 mm in length, were then made along the dorsal midline. The incisions penetrated the epidermis, dermis and subcutaneous muscle but left the deep fascia intact. Two subcutaneous pockets were made on both sides of the incisions by separating the subcutaneous muscle from the deep fascia. One (Exp. I) or two (Exp. 2) mini-pumps were implanted in each pocket. The wounds were closed with sutures 4-0 (Johnson & Johnson).
Osmotic mini-pumps (Alzet 2001, Alza Corporation, Palo Alto, USA) releasing 1 μl.h^-1 for 8 days were used for continuous delivery of hormones and Dex to the animals. The pumps were filled to a volume of 0.22 ml with solutions of rhGH (14.4 mg.ml^-1, Genotropin®, Pharmacia), rhlGF-I (20 mg.ml^-1, Igef®, Pharmacia, Kabi Peptide Hormones, Stockholm, Sweden), insulin (1.57 mg/ml, Actrapid®, Novo, Copenhagen, Denmark), Dex (1.04 mg.ml^-1, Decadron, Merck Sharp & Dohme International, Rathway, USA) or Saline (0.9%). Two (Example 1) or four (Example 2) pumps combined as described above were implanted in each rat. Implantation of the pumps was performed under strictly aseptic conditions.
Total feed intake was registered throughout the full 8 day experimental period. Urine and faeces were collected daily, pooled and kept at -20° C. until analysed. Excreta was collected by housing the animals in individual metabolism cages that were specially designed for the separation of urine and faeces. In order to inhibit urease-activity in the urine, 1 ml of 5% sulphuric acid was pipetted every morning in the collection vessels. The 24 hour collections of urine were pooled individually for each treatment period and immediately frozen after the collection. Similarly, the samples of faeces were also pooled individually for each treatment period and kept frozen (-20° C.) until analysis.
Urea in serum was determined spectrophotometrically by using the Urea UV Uni-Kit I (Roche) with an autoanalyzer (Cobas Mira, Roche Co, Basel, Switzerland). Urea values were expressed in mmol/l. The total nitrogen content in urine was determined with the aid of the Antek Pyro-Chemiluminiscence Nitrogen System. The apparatus used comprised the Antek 7000N nitrogen analyser with Liquid Auto Sampler 736-2 and a pyrolysis tube with a ceramic liner (Antek Instruments Inc., Houston, Tex., U.S.A.). The frozen urinary samples were thawed and diluted 1:100 with 0.1 M HCl and then analysed. The urinary nitrogen values were then calculated as mg nitrogen excreted.
Total nitrogen in faeces was determined by an established Kjeldahl method (Kjeltec System, Tecator AB, Halsingborg, Sweden). The frozen faecal samples were thawed and dried in an oven at 60° C. overnight. The weight of the dried sample was noted and the sample then ground. 0.20 g of the milled faecal sample was mixed in a Kjeldahl digestion tube with 10.0 ml of concentrated sulphuric acid. 2.0 ml of a 30% solution of H202 (30% Perhydrol, Merck, Darmstadt, Germany) was added and mixed carefully. One catalyst tablet (Kjeltabs CA, Thompson & Capper, Runcom, Cheshire, UK) was added to each sample. The mixture was digested at […] for at least one hour or until complete bleaching of the sample was achieved. The nitrogen content of this solution was determined after alkalinization by steam distillation of the ammonia and automated titration of the distillate. The faecal nitrogen values were calculated as mg nitrogen excreted.
Data were subjected to a one-way analysis of variance in which the effect of treatment was considered the prime source of variation.

[3] = Dex 26, 13 or 6.5 μg/day (every Dex dose), rhGH 360 μg/day or rhIGF-I 500 μg/day s.c. mini-pump, compared with saline

| reduction of feed intake (Male Sprague-Dawley rats [2]; Dex 26 μg/day) | Molecule | body weight gain, effect of Dex dose (Male Sprague-Dawley rats [1]; Dex 6.5, 13, 26 μg/day) | relative nitrogen retention (retained N/digested N×100) (Male Sprague-Dawley rats [2]) [%] | nitrogen retention, effect compared with Dex without peptide (Male Sprague-Dawley rats [2]) | body weight gain (Male Sprague-Dawley rats [1]; [3]) | body weight gain (Male Sprague-Dawley rats [1]; Dex 26, 13 or 6.5 μg/day (every Dex dose), rhGH 360 μg/day or rhIGF-I 500 μg/day s.c. mini-pump, compared with saline, listed as hGH) | body weight gain (Male Sprague-Dawley rats [1]; medium and high Dex infusion dose (13 and 26 μg/day), rhGH 360 μg/day) | retention of nitrogen (Male Sprague-Dawley rats [1]; Dex 26, 13 or 6.5 μg/day, rhIGF-I 500 μg/day, compared with saline and rhGH) |
| --- | --- | --- | --- | --- | --- | --- | --- | --- |
| approximately 20% | C[C@@H]1C[C@H]2[C@@H]3CCC4=CC(=O)C=C[C@]4(C)[C@@]3(F)[C@@H](O)C[C@]2(C)[C@@]1(O)C(=O)CO [Dex, dexamethasone, reference compound] | general decrease with increased Dex dose | 7.2 | – | – | – | – | – |
| – | insulin | – | 11.9 | without effect | – | – | – | – |
| – | recombinant human growth hormone [rhGH] | – | 3.8 | without effect | opposite effect | opposite effect (p<0.05) | negative values for body weight gain | – |
| – | recombinant human insulin-like growth factor I [rhIGF-I] | – | 23.0 | – | significantly (p<0.05) higher weight gain in comparison with saline; also recorded: significantly (p<0.05) increased | – | – | significantly (p<0.05) higher |
